Assay results reported in patent publication US20130029981A1, “COMPOUNDS, COMPOSITIONS, AND METHODS FOR CONTROLLING BIOFILMS” (Katholieke Universiteit Leuven, priority 2009, published 2013).
Where two headings read alike, the source gives them in different places.

Assays:
[1] = tested on: Salmonella Typhimurium ATCC 14028; experiment: Antibacterial activity: growth inhibition, OD600 after 24 h (GIC50); assay type: cell-based
Description: Evaluation of antibacterial-inhibitory activity of some substituted 2-amino-1H-imidazoles of the invention was carried out by diluting an overnight culture of Salmonella Typhimurium ATCC 14028 into a liquid medium. 200 μl of the diluted overnight culture was added to each well of a microtiter plate together with different concentrations of the test compound (1/2 dilution series of the compound). After an incubation of 24 hours the optical density at 600 nm of each well was determined with a microtiter plate reader.
Starting from a 40 mM stock solution of each compound in DMSO, two-fold serial dilutions in 100 μl liquid broth per well were prepared in dublicate in sterile transparant microtiter plates. The broth used was TSB 1/20 for measurements at 25° C. and CFA (in case of Salmonella Typhimurium) and LBNS (in case of Pseudomonas aeruginosa) for measurements at 37° C. Subsequently an overnight culture of the bacteria (S. Typhimurium ATCC14028 or P. aeruginosa PA14) was diluted 1/200 into the corresponding liquid broth and 100 μl was added to each well of the microtiterplate resulting in a total amout of 200 μl medium per well. After an incubation of 24 hours the optical density at 600 nm of each well was determined with a microtiter plate reader (VERSAmax, Molecular Devices).
Evaluation of antibacterial-inhibitory activity of some substituted imidazo[1,2-a]pyrimidinium bromide salts of the invention was carried out by diluting an overnight culture of Salmonella Typhimurium ATCC14028 or Pseudomonas aeruginosa PA141/200 into liquid medium. 200 μl of the diluted overnight culture was added to each well of a microtiterplate together with different concentrations of the test compound (1/2 dilution series of the compound). After an incubation of 24 hours the optical density at 600 nm of each well was determined with a microtiter plate reader.

[2] = tested on: S. Typhimurium ATCC14028; experiment: Static peg assay for prevention of biofilm formation (Calgary device, crystal violet); assay type: cell-based, Salmonella Typhimurium
Summary of the method: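 Calgary 96-peg device, ca. 10^6 cells of ATCC14028 per well in TSB 1/20 for 24 h at 25° C (or 48 h at 16° C, medium and compound renewed at 24 h), or in CFA broth for 24 h at 37° C, static, with two-fold compound dilutions. Crystal violet stain, acetic acid extraction, OD570. IC50 from 2–3 independent experiments.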

[3] = tested on: Pseudomonas aeruginosa PA14; experiment: as above; assay type: cell-based
Summary of the method: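 P. aeruginosa PA14 overnight TSB culture diluted 1:100 into broth with two-fold compound dilutions, biofilms grown 24 h static on polystyrene pegs of a Calgary device at 25 °C (TSB 1/20), 30 °C or 37 °C (CFA and/or LBNS). Biofilm quantified by crystal violet, extracted with 30% acetic acid, A570.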

[4] = P. aeruginosa PA14, 25° C., read-out: P. aeruginosa IC50 (biofilm formation)
[5] = S. Typhimurium ATCC 14028, 25° C., read-out: S. Typhimurium IC50 (biofilm formation)
[6] = Table 21, P. aeruginosa PA14, 25° C., read-out: P. aeruginosa IC50 (biofilm formation)
[7] = Table 21, S. Typhimurium ATCC14028, 25° C., read-out: S. Typhimurium IC50 (biofilm formation)
[8] = 25° C., Table 22, read-out: P. aeruginosa IC50 (biofilm formation)
[9] = 25° C., Table 22, read-out: S. Typhimurium IC50 (biofilm formation)
[10] = S. Typhimurium ATCC 14028, 25° C., read-out: IC50 for biofilm inhibition (25° C.)
[11] = Salmonella enterica, 25° C., Table 11, read-out: IC50 (biofilm formation)
[12] = Salmonella enterica, 25° C., Table 14, read-out: IC50 biofilm inhibition
[13] = OD600 after 24 hours of growth, read-out: GIC(50)

Compound: OC1(c2ccc3c(c2)OCO3)C[n+]2cccnc2N1Cc1ccc2c(c1)OCO2 (stereo not drawn) [Compound 80]
- IC50 ([1]; 25° C.): 100 to 200 µM
- IC50 ([2]; 25° C., Table 11, read-out: IC50 (biofilm formation)): 102 µM
- IC50 ([2]; 25° C., Table 14, read-out: IC50 biofilm inhibition): 102 µM
- IC50 ([2]; 25° C., Table 19, read-out: IC50 (biofilm formation)): 53.7 µM

Compound: Nc1ncc(-c2ccc(F)cc2)[nH]1 [Compound 96]
- IC50 [3, 4]: 15 µM
- IC50 [2, 5]: 84.4 µM

Compound: CNc1ncc(-c2ccc(F)cc2)[nH]1 [Compound 97]
- IC50 [3, 4]: 25.2 µM
- IC50 [2, 5]: 102 µM

Compound: CCCCNc1ncc(-c2ccc(F)cc2)[nH]1 [Compound 98]
- IC50 [3, 4]: 10.8 µM
- IC50 [2, 5]: 15.5 µM

Compound: CCCCCCNc1ncc(-c2ccc(F)cc2)[nH]1 [Compound 99]
- IC50 [3, 4]: ~12.5 µM
- IC50 [2, 5]: > 400 µM

Compound: CCCCCCCCNc1ncc(-c2ccc(F)cc2)[nH]1 [Compound 100]
- IC50 [3, 4]: ~3.1 µM
- IC50 [2, 5]: > 400 µM

Compound: Nc1ncc(-c2ccc(Br)cc2)[nH]1 [Compound 101]
- IC50 [3, 4]: 3.2 µM
- IC50 [2, 5]: 47.9 µM

Compound: CCCCNc1ncc(-c2ccc(Br)cc2)[nH]1 [Compound 102]
- IC50 [3, 4]: 9.8 µM
- IC50 [2, 5]: 7.1 µM

Compound: CC(C)CNc1ncc(-c2ccc(Br)cc2)[nH]1 [Compound 103]
- IC50 [3, 4]: 1.2 µM
- IC50 [2, 5]: 2.9 µM

Compound: CCCCCNc1ncc(-c2ccc(Br)cc2)[nH]1 [Compound 104]
- IC50 [3, 4]: 10.2 µM
- IC50 [2, 5]: 3.1 µM

Compound: CCCCCCCCNc1ncc(-c2ccc(Br)cc2)[nH]1 [Compound 105]
- IC50 [3, 4]: > 800 µM
- IC50 [2, 5]: 1.9 µM

Compound: COc1ccc(-c2cnc(N)[nH]2)cc1 [Compound 106]
- IC50 [3, 4]: 186 µM
- IC50 [2, 5]: 120 µM

Compound: CCCCNc1ncc(-c2ccc(OC)cc2)[nH]1 [Compound 107]
- IC50 [3, 4]: 46.3 µM
- IC50 [2, 5]: 52.6 µM

Compound: CCCCCCCCNc1ncc(-c2ccc(OC)cc2)[nH]1 [Compound 108]
- IC50 [3, 4]: > 800 µM
- IC50 [2, 5]: ~400 µM

Compound: CCCNc1ncc(-c2ccc(Cl)c(Cl)c2)[nH]1 [Compound 109]
- IC50 [3, 4]: 27.7 µM
- IC50 [2, 5]: 10.9 µM

Compound: CCCCCCCCNc1ncc(-c2ccc(Cl)c(Cl)c2)[nH]1 [Compound 111]
- IC50 [3, 4]: > 800 µM
- IC50 [2, 5]: 118 µM

Compound: CS(=O)(=O)c1ccc(-c2cnc(N)[nH]2)cc1 [Compound 115]
- IC50 [3, 4]: > 800 µM
- IC50 [2, 5]: > 800 µM

Compound: CCCCCCCCNc1ncc(-c2ccc(S(C)(=O)=O)cc2)[nH]1 [Compound 116]
- IC50 [3, 4]: ~3.1 µM
- IC50 [2, 5]: 41.8 µM

Compound: Clc1ccc(-c2cnc(NC3CCCC3)[nH]2)cc1 [Compound 118]
- IC50 [3, 6]: 13.5 µM
- IC50 [2, 7]: 4.4 µM

Compound: O=[N+]([O-])c1ccc(-c2cnc(NC3CCCC3)[nH]2)cc1 [Compound 119]
- IC50 [3, 6]: 20.2 µM
- IC50 [2, 7]: 11.8 µM

Compound: Brc1ccc(-c2cnc(NC3CCCC3)[nH]2)cc1 [Compound 120]
- IC50 [3, 6]: 7.2 µM
- IC50 [2, 7]: 12.1 µM

Compound: Clc1ccc(-c2cnc(NC3CCCC3)[nH]2)cc1Cl [Compound 121]
- IC50 [3, 6]: 7.9 µM
- IC50 [2, 7]: 5.7 µM

Compound: Clc1ccc(-c2cnc(NC3CCCCC3)[nH]2)cc1 [Compound 122]
- IC50 [3, 6]: ~25 µM
- IC50 [2, 7]: > 800 µM

Compound: O=[N+]([O-])c1ccc(-c2cnc(NC3CCCCC3)[nH]2)cc1 [Compound 123]
- IC50 [3, 6]: ~25 µM
- IC50 [2, 7]: 36.7 µM

Compound: O=[N+]([O-])c1cccc(-c2cnc(NC3CCCCC3)[nH]2)c1 [Compound 124]
- IC50 [3, 6]: 4.4 µM
- IC50 [2, 7]: 630 µM

Compound: COc1ccc(-c2cnc(NC3CCCCC3)[nH]2)cc1 [Compound 125]
- IC50 [3, 6]: 54.8 µM
- IC50 [2, 7]: ~378 µM

Compound: CSc1ccc(-c2cnc(NC3CCCCC3)[nH]2)cc1 [Compound 126]
- IC50 [3, 6]: 15.8 µM
- IC50 [2, 7]: 191 µM

Compound: COc1ccc(CNc2ncc(-c3ccc([N+](=O)[O-])cc3)[nH]2)cc1 [Compound 128]
- IC50 [3, 8]: > 800 µM
- IC50 [2, 9]: > 800 µM

Compound: COc1cccc(CCNc2ncc(-c3ccc([N+](=O)[O-])cc3)[nH]2)c1 [Compound 129]
- IC50 [3, 8]: 3.7 µM
- IC50 [2, 9]: 19.1 µM
- IC50 [2, 10]: 15 µM

Compound: COc1cccc(CCNc2ncc(-c3ccc(Cl)c(Cl)c3)[nH]2)c1 [Compound 130]
- IC50 [3, 8]: > 800 µM
- IC50 [2, 9]: > 800 µM

Compound: Fc1ccc(-c2cnc(NCc3ccc4c(c3)OCO4)[nH]2)cc1 [Compound 132]
- IC50 [3, 8]: 456 µM
- IC50 [2, 9]: 66.6 µM
- IC50 [2, 10]: 68 µM

Compound: c1ccc2c(-c3cnc(NCc4ccc5c(c4)OCO5)[nH]3)cccc2c1 [Compound 133]
- IC50 ([3]; Pseudomonas aeruginosa, PA14, 25° C., Table 22, read-out: P. aeruginosa IC50 (biofilm formation)): 10.5 µM
- IC50 ([2]; Salmonella enterica, 25° C., Table 22, read-out: S. Typhimurium IC50 (biofilm formation)): 261 µM

Compound: COc1ccc(CCN2c3nccc[n+]3CC2(O)c2ccc([N+](=O)[O-])cc2)cc1OC (stereo not drawn) [R1=2-(3,4-diMeO—Ph)Et, R3=4-NO2-Ph, R4=H, 1-(2-(3,4-dimethoxyphenyl)ethyl)-2-hydroxy-2-(4-nitrophenyl)-2,3-dihydro-1H-imidazo-[1,2-a]pyrimidin-4-ium bromide]
- IC50 ([1]; Salmonella enterica, 25° C.): 100 to 200 µM
- IC50 [2, 11]: 127 µM
- IC50 [2, 12]: 127 µM

Compound: COc1ccc(C2(O)C[n+]3cccnc3N2C2CCCCC2)cc1 (stereo not drawn) [R1=Cyclohexyl, R3=4-MeO—Ph, R4=H, 1-cyclohexyl-2-hydroxy-2-(4-methoxyphenyl)-2,3-dihydro-1H-imidazo[1,2-a]pyrimidin-4-ium bromide]
- IC50 ([1]; Salmonella enterica, 25° C.): 50 to 100 µM
- IC50 [2, 11]: 112 µM
- IC50 [2, 12]: 112 µM

Compound: CSc1ccc(C2(O)C[n+]3cccnc3N2C2CCCCC2)cc1 (stereo not drawn) [R1=Cyclohexyl, R3=4-MeS—Ph, R4=H, 1-cyclohexyl-2-hydroxy-2-(4-methylthiophenyl)-2,3-dihydro-1H-imidazo[1,2-a]pyrimidin-4-ium bromide]
- IC50 ([1]; Salmonella enterica, 25° C.): 100 to 200 µM
- IC50 [2, 11]: 118 µM
- IC50 [2, 12]: 118 µM

Compound: CCCCNc1nc(-c2ccc(F)cc2)c[nH]1 [R1=H, R2=Butyl, R3=H, R4=p-F—Ph]
- IC50 ([3]; P. aeruginosa PA14, 25° C., read-out: IC50 for biofilm inhibition (25° C.)): 6 µM
- IC50 [2, 10]: 16 µM

Compound: Brc1ccc(-c2c[nH]c(NC3CCCC3)n2)cc1 [R1=H, R2=cyclopentyl, R3=H, R4=p-Br—Ph]
- IC50 [1, 13]: 50 to 100 µM

Compound: Clc1ccc(-c2c[nH]c(NC3CCCC3)n2)cc1 [R1=H, R2=cyclopentyl, R3=H, R4=p-Cl—Ph]
- IC50 [1, 13]: 45 µM
- IC50 [2, 10]: 4 µM

Compound: CC1[n+]2cccnc2N(c2ccccc2)C1(O)c1ccc(Br)cc1 (stereo not drawn) [R1=Ph, R3=4-Br—Ph, R4=Me, 1-phenyl-2-hydroxy-2-(4-bromophenyl)-3-methyl-2,3-dihydro-1H-imidazo[1,2-a]pyrimidin-4-ium bromide]
- IC50 ([1]; Salmonella enterica, 25° C.): 50 to 100 µM
- IC50 [2, 11]: 57.5 µM
- IC50 [2, 12]: 57.5 µM

Compound: CCCCN1c2nccc[n+]2CC1(O)C(c1ccccc1)c1ccccc1 (stereo not drawn) [R1=n-butyl, R3=dimethylphenyl, R4=H, 1-butyl-2-hydroxy-2-(diphenyl-methyl)-2,3-dihydro-1H-imidazo[1,2-a]pyrimidin-4-ium bromide]
- IC50 ([1]; Salmonella enterica, 25° C.): 50 to 100 µM
- IC50 [2, 12]: 72.1 µM
